The numbers were not newly measured in US8481599B2, “Compositions and methods for increasing compliance with therapies using aldehyde dehydrogenase inhibitors and treating alcoholism” (Tonix Pharmaceuticals Inc., priority 2001, dated 2013), which cites them from elsewhere.

Read-outs that look alike come from different tables or passages of the source.

One series has as its system ALDH. The note with it: rat studies.
For series [1] the following is noted: rat studies.
For another series, the target named is T1, ALDH-I (Homo sapiens, UniProt P05091).
T1 sequence (P05091 18-517): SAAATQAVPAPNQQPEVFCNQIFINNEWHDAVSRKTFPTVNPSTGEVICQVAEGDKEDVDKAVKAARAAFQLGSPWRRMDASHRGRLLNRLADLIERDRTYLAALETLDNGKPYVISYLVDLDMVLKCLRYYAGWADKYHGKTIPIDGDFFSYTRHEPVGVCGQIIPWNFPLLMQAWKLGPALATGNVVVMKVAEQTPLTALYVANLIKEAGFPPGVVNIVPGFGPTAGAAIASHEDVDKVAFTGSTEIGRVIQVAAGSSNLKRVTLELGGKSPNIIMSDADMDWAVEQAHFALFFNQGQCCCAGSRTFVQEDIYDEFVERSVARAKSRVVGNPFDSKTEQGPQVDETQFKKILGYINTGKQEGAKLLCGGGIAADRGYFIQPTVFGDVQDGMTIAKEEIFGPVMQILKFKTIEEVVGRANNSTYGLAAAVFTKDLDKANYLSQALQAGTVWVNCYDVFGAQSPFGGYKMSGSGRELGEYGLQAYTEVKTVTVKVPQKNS

The target of a further series is T2, ALDH-II (Homo sapiens, UniProt P00352).
T2 sequence (P00352 1-501): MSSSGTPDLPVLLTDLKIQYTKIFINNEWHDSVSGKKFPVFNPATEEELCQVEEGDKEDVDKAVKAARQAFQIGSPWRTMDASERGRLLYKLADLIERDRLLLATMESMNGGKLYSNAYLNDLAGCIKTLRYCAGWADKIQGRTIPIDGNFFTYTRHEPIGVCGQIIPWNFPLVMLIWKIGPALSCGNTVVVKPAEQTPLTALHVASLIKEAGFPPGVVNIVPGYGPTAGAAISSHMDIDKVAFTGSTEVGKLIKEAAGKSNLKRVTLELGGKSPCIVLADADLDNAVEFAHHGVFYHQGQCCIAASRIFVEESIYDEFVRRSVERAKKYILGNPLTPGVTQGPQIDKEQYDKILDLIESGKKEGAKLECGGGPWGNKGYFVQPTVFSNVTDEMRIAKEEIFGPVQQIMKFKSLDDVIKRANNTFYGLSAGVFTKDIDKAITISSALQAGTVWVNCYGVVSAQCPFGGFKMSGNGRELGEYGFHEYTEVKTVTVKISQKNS
The following applies: in vitro.

Take “N5-(hydroxycyclopropyl)-L-glutamine [coprine]”: in the series on ALDH, the “potency as ALDH inhibitor relative to disulfiram” value is on record as “more potent inhibitor of ALDH as compared to disulfiram”. For the same molecule, the “suppression of ethanol consumption” value in series [1] is on record as “effectively suppressed ethanol consumption”.

For the molecule `O=c1c(-c2ccc(O)cc2)coc2cc(O[C@@H]3O[C@H](CO)[C@@H](O)[C@H](O)[C@H]3O)ccc12` [Daidzin], the “inhibition of ALDH-I” value on ALDH-I was “selective potent reversible inhibitor”.

Regarding `N#CN` [cyanamide], at ALDH-II, the “inhibition of ALDH-II” value is “unable to inhibit”. On ALDH-I (in vitro), the “inhibition of ALDH-I” value was “unable to inhibit”.
